Test results: ChEMBL document CHEMBL1142509, “Building skeletally diverse architectures on the Indoline Scaffold: the discovery of a chemical probe of focal adhesion kinase signaling networks” (Bioorg Med Chem, 2008)
The source made the active and inactive calls. The rule behind the calls is not given here.

Columns and labels:
[1] = target: Focal adhesion kinase 1 (Homo sapiens) (UniProt Q05397); experiment: Inhibition of FAK in human MDA-MB-231M cells assessed as phosphorylated tyrosine 397 levels at 25 uM after 1 hr by Western blot; assay type: cell-based
Chain of Focal adhesion kinase 1 (Homo sapiens) (Q05397 2-1052 limits assumed): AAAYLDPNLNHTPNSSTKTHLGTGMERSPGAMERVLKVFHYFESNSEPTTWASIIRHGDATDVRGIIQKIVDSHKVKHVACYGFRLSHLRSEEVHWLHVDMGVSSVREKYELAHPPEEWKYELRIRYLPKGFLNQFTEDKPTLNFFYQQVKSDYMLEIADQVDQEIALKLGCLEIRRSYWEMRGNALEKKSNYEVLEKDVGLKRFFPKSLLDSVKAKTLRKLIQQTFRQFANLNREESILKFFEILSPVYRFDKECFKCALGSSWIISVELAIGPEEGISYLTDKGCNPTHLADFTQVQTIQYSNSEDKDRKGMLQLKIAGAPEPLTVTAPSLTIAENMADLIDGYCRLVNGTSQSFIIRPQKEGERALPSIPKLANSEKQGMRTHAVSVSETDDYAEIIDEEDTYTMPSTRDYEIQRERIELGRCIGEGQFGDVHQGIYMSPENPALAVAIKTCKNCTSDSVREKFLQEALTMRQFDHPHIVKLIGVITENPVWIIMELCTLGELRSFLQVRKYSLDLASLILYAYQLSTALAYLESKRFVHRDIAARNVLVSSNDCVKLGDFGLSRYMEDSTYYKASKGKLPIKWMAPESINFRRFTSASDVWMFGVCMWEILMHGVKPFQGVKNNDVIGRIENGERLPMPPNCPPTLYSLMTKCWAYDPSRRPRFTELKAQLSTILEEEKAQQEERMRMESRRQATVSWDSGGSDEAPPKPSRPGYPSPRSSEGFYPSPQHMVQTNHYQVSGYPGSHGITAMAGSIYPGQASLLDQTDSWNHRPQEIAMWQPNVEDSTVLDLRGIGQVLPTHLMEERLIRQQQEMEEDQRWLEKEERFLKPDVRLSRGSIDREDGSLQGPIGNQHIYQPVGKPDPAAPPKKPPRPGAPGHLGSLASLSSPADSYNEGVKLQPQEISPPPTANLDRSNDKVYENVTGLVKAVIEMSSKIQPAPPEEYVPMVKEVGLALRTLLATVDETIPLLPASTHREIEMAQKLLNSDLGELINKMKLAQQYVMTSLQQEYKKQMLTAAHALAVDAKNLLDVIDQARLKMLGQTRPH

[2] = target: Focal adhesion kinase 1 (Homo sapiens) (UniProt Q05397); experiment: Inhibition of human FAK at 30 uM
[3] = tested on: MDA-MB-231; experiment: Antiinvasive activity against human MDA-MB-231 cells at 25 uM; assay type: functional, cell-based
[4] = species on record: Homo sapiens; experiment: Inhibition of human MDA-MB-231M cell motility assessed as remaining wound area at 25 uM after 24 hrs by wound healing assay; assay type: functional
[5] = Antiproliferative activity against human MDA-MB-231M cells after 96 hrs by MTT assay; assay type: functional, cell-based

In the case of C=CCOC(=O)N1c2ccc(OCCCOC3CCCCO3)cc2C[C@H]1[C@@H](CC=C)OC(C)=O (mixture of isomers), the Activity [1] is reported as “Active”, the inhibition [2] is reported as 30% and the Activity [3] is reported as “Active”. For the same compound, the Activity [4] was “Active” and the IC50 [5] was 38.7 µM.
